Patent US20100113523A1 (priority 2008, published 2010)

Legend:
[1] = Pharmacokinetic analysis in humans (serum and urine, DART TOF-MS); assay type: in vivo; details: human, ingested in a mixture
Experimental: Five healthy consenting female adults ranging in age from 23 to 57 were took diets free of flavonoids and any NSAIDs. A certified individual collected blood samples at several time intervals between 0 and 480 min after compounds of the present invention were ingested in a mixture. Immediately after the time zero blood samples were collected, a single 100 mg dose of the composition was administered as a lozenge. Blood samples were handled with approved protocols and precautions, centrifuged to remove cells and the serum fraction was collected and frozen. Blood was not treated with heparin to avoid any analytical interference. Urine samples were collected from the same five subjects on a time course (0 to 8 h).
The cells were removed from the blood samples by centrifugation and the serum was collected. Serum samples were prepared for DART TOF-MS analysis by extraction with an equal volume of neat ethanol (USP) to minimize background of proteins, peptides, and polysaccharides present in serum. The ethanol extract was centrifuged for 10 min at 4° C., the supernatant was removed, concentrated to 200 μL volume, and 50 μL of an internal standard was added. Urine samples were not treated and used directly for DART TOF-MS. DART TOF-MS analyses were conducted as described above.

[2] = target: T1, tryptase enzyme (Homo sapiens, UniProt P20231); experiment: Tryptase inhibition (cleavage of tosyl-gly-pro-lys-pNA, absorbance at 405 nm); assay type: biochemical; details: relative to controls; 2 h at 37° C.
T1 construct: purchased Millipore Inc., Westbury, Mass
Experimental: Tryptase activity was determined by monitoring the production of chromophore p-nitroaniline (pNA) generated by the cleavage of tosyl-gly-pro-lys-pNA by the tryptase enzyme according to the manufacturer's protocol (Millipore Inc., Westbury, Mass.). In a 96-well format, 10 μL of tryptase was added to 10 μL of sample, followed by 20 μL of tosyl-gly-pro-lys-pNA and 160 μL of 1× reaction buffer and incubated for 2 h at 37° C. After the incubation, absorbance at 405 nm was measured in each well using a Tecan M200 microplate reader.

T1 sequence (P20231 31-275): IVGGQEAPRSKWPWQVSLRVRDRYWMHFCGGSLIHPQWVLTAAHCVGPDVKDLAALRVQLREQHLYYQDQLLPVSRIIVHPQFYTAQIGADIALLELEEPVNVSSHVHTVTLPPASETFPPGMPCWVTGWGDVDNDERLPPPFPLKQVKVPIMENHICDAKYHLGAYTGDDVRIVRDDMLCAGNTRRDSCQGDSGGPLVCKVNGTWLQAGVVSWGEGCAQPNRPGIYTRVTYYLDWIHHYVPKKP

Compound	time to appearance in the bloodstream (serum) after ingestion ([1]; single 100 mg lozenge)	time to appearance in urine after ingestion ([1]; single 100 mg lozenge)	time present in the serum post-ingestion ([1]; single 100 mg lozenge, sampling 0 to 480 min)	persistence in the urine post-ingestion ([1]; urine collected 0 to 8 h)	IC50 [2]
CCCCCC/C=C/CN(c1ccc(C)cc1)c1ccc(S)cn1 [compound (V)]	≤ 10 min	≤ 1 h	up to 480 min	up to 8 h	
CCCCCC/C=C/CN(c1ccc(C)cc1)c1ccc(SSc2ccc(N(C/C=C/CCCCCC)c3ccc(C)cc3)nc2)cn1 [compound [7]]					789 µM
